Values joined by “and” are separate entries in the source; they are usually repeats but may differ in a detail not shown here. Equal entries are not always repeated. Inconclusive results and toxic doses are left out. No stated cut-off is given here; in the data, active means T/C of 150% or more; inactive means T/C below 125%.
Tested on: L1210 leukemia ip in BDF1 mice, survival T/C
Assay: NCI In Vivo Anticancer Drug Screen. Data for tumor model L1210 Leukemia (intraperitoneal) in B6D2F1 (BDF1) mice
Conditions: endpoint: mean survival time, higher = longer survival
Method in brief: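 Read-out is survival time, reported as the treated-group measurement over the vehicle-control measurement.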

[1] = dose: 100.0 mg/kg/injection, schedule: Q04DX003 (ip), vehicle: saline with Tween-80
[2] = dose: 400.0 mg/kg/injection, schedule: Q04DX003 (ip), vehicle: saline with Tween-80
[3] = dose: 100.0 mg/kg/injection, schedule: Q01DX001 (ip), vehicle: saline
[4] = dose: 200.0 mg/kg/injection, schedule: Q01DX001 (ip), vehicle: saline
[5] = dose: 400.0 mg/kg/injection, schedule: Q01DX001 (ip), vehicle: saline
[6] = dose: 100.0 mg/kg/injection, schedule: Q01DX001 (ip), vehicle: carboxymethylcellulose (CMC)
[7] = dose: 100.0 mg/kg/injection, schedule: Q01DX009 (ip), vehicle: Klucel (hydroxypropylcellulose) (HPC)

Measured: T/C

COc1cc([N+](=O)[O-])c(Cl)cc1NS(=O)(=O)c1ccccc1
inactive: dose: 100.0 mg/kg/injection, schedule: Q01DX009 (ip), vehicle: saline with Tween-80 100 % of control | [1] 97 % of control | dose: 133.0 mg/kg/injection, schedule: Q04DX003 (ip), vehicle: saline with Tween-80 95 % of control and 89 % of control | dose: 200.0 mg/kg/injection, schedule: Q01DX009 (ip), vehicle: saline with Tween-80 103 % of control | dose: 300.0 mg/kg/injection, schedule: Q04DX003 (ip), vehicle: saline with Tween-80 95 % of control and 92 % of control | dose: 400.0 mg/kg/injection, schedule: Q01DX009 (ip), vehicle: saline with Tween-80 89 % of control | [2] 95 % of control

CCCCCCCCCOCC(O)COc1ccccc1[N+](=O)[O-] (stereo unspecified)
inactive: dose: 100.0 mg/kg/injection, schedule: Q04DX003 (ip), vehicle: saline sonified 113 % of control | dose: 200.0 mg/kg/injection, schedule: Q04DX003 (ip), vehicle: saline sonified 95 % of control | dose: 400.0 mg/kg/injection, schedule: Q04DX003 (ip), vehicle: saline sonified 98 % of control

COc1c2c([n+](C)c3c(OC)cccc13)OC(C(C)C)C2 (stereo unspecified)
inactive: dose: 0.5 mg/kg/injection, schedule: Q01DX009 (ip), vehicle: acetone 100 % of control | dose: 0.75 mg/kg/injection, schedule: Q01DX009 (ip), vehicle: saline 103 % of control | dose: 1.0 mg/kg/injection, schedule: Q01DX001 (ip), vehicle: saline 96 % of control | dose: 1.0 mg/kg/injection, schedule: Q01DX009 (ip), vehicle: acetone 120 % of control | dose: 1.0 mg/kg/injection, schedule: Q04DX003 (ip), vehicle: Klucel (hydroxypropylcellulose) (HPC) 97 % of control | dose: 1.0 mg/kg/injection, schedule: Q04DX003 (ip), vehicle: acetone 108 % of control | dose: 1.5 mg/kg/injection, schedule: Q01DX009 (ip), vehicle: saline 92 % of control | dose: 2.0 mg/kg/injection, schedule: Q01DX001 (ip), vehicle: saline 96 % of control | dose: 2.0 mg/kg/injection, schedule: Q04DX003 (ip), vehicle: Klucel (hydroxypropylcellulose) (HPC) 105 % of control | dose: 2.0 mg/kg/injection, schedule: Q04DX003 (ip), vehicle: acetone 119 % of control | dose: 4.0 mg/kg/injection, schedule: Q01DX001 (ip), vehicle: saline 98 % of control

N#Cc1cc(Cl)c2c(c1Cl)Nc1c(Cl)ccc(Cl)c1S2
inactive: dose: 50.0 mg/kg/injection, schedule: Q01DX001 (ip), vehicle: saline 96 % of control | [3] 96 % of control | [4] 96 % of control | [5] 102 % of control

O=C1C=C2CCCC(=O)C2(Cc2ccccc2)CC1 (stereo unspecified)
inactive: dose: 100.0 mg/kg/injection, schedule: Q01DX009 (ip), vehicle: alcohol 103 % of control | dose: 200.0 mg/kg/injection, schedule: Q01DX009 (ip), vehicle: alcohol 92 % of control | dose: 400.0 mg/kg/injection, schedule: Q01DX009 (ip), vehicle: alcohol 96 % of control

O=[N+]([O-])c1cccc(C[n+]2ccccc2C2OCCO2)c1
inactive: dose: 35.0 mg/kg/injection, schedule: Q01DX009 (ip), vehicle: saline 95 % of control

COC(=O)CCC(C)[N+](=O)[O-] (stereo unspecified)
inactive: dose: 100.0 mg/kg/injection, schedule: Q01DX009 (ip), vehicle: saline 112 % of control | dose: 200.0 mg/kg/injection, schedule: Q01DX009 (ip), vehicle: saline 104 % of control | dose: 400.0 mg/kg/injection, schedule: Q01DX009 (ip), vehicle: saline 98 % of control

NCCc1cc(O)c(O)c(S(=O)(=O)c2ccc(N)cc2)c1
inactive: dose: 75.0 mg/kg/injection, schedule: Q01DX009 (ip), vehicle: saline 107 % of control | dose: 150.0 mg/kg/injection, schedule: Q01DX009 (ip), vehicle: saline 105 % of control

CN(C)Cc1ccccc1COC(=O)c1ccc([N+](=O)[O-])cc1Cl
inactive: dose: 100.0 mg/kg/injection, schedule: Q04DX002 (ip), vehicle: Klucel (hydroxypropylcellulose) (HPC) 102 % of control | dose: 200.0 mg/kg/injection, schedule: Q04DX002 (ip), vehicle: Klucel (hydroxypropylcellulose) (HPC) 109 % of control | dose: 400.0 mg/kg/injection, schedule: Q04DX002 (ip), vehicle: Klucel (hydroxypropylcellulose) (HPC) 94 % of control

O=C(/C(=C/c1ccc2c(c1)OCO2)c1ccccc1)c1ccc(OCCN2CCCC2)cc1
inactive: [6] 95 % of control | dose: 200.0 mg/kg/injection, schedule: Q01DX001 (ip), vehicle: carboxymethylcellulose (CMC) 106 % of control | dose: 400.0 mg/kg/injection, schedule: Q01DX001 (ip), vehicle: carboxymethylcellulose (CMC) 95 % of control

CCCCOC(=O)OCNC(=O)Oc1ccc(Br)cc1Br
inactive: [7] 92 % of control | dose: 200.0 mg/kg/injection, schedule: Q01DX009 (ip), vehicle: Klucel (hydroxypropylcellulose) (HPC) 94 % of control | dose: 400.0 mg/kg/injection, schedule: Q01DX009 (ip), vehicle: Klucel (hydroxypropylcellulose) (HPC) 101 % of control

NC(=O)c1ccc(N)nc1
inactive: dose: 22.0 mg/kg/injection, schedule: Q01DX001 (ip), vehicle: carboxymethylcellulose (CMC) 104 % of control and 106 % of control | dose: 25.0 mg/kg/injection, schedule: Q01DX001 (ip), vehicle: carboxymethylcellulose (CMC) 106 % of control | dose: 33.0 mg/kg/injection, schedule: Q01DX001 (ip), vehicle: carboxymethylcellulose (CMC) 109 % of control and 114 % of control | dose: 50.0 mg/kg/injection, schedule: Q01DX001 (ip), vehicle: carboxymethylcellulose (CMC) 111 % of control and 112 % of control | dose: 75.0 mg/kg/injection, schedule: Q01DX001 (ip), vehicle: carboxymethylcellulose (CMC) 109 % of control and 90 % of control | [6] 95 % of control

CS(=O)(=O)/C=C\c1ccccc1
inactive: dose: 100.0 mg/kg/injection, schedule: Q04DX003 (ip), vehicle: saline 101 % of control | dose: 200.0 mg/kg/injection, schedule: Q04DX003 (ip), vehicle: saline 95 % of control | dose: 400.0 mg/kg/injection, schedule: Q04DX003 (ip), vehicle: saline 103 % of control

O=[N+]([O-])c1ccc(N/N=C\c2ccc(OCc3ccccc3)cc2)c([N+](=O)[O-])c1
inactive: dose: 100.0 mg/kg/injection, schedule: Q01DX001 (ip), vehicle: other 86 % of control

Cc1ccc(S(=O)(=O)NCCC(=O)O)cc1
inactive: [3] 93 % of control | [4] 98 % of control | [5] 98 % of control

Cc1ccc(C2CC2S(=O)(=O)c2ccccc2)cc1 (stereo unspecified)
inactive: [3] 108 % of control | [4] 112 % of control | [5] 102 % of control

O=C1/C(=C\c2ccc(OCc3ccccc3)cc2)N2CCC1CC2
inactive: [1] 97 % of control | dose: 200.0 mg/kg/injection, schedule: Q04DX003 (ip), vehicle: saline with Tween-80 95 % of control | [2] 87 % of control

c1ccc(OCc2ccc(COc3ccccc3)cc2)cc1
inactive: dose: 25.0 mg/kg/injection, schedule: Q01DX009 (ip), vehicle: Klucel (hydroxypropylcellulose) (HPC) 98 % of control | dose: 25.0 mg/kg/injection, schedule: Q04DX003 (ip), vehicle: Klucel (hydroxypropylcellulose) (HPC) 97 % of control | dose: 50.0 mg/kg/injection, schedule: Q01DX009 (ip), vehicle: Klucel (hydroxypropylcellulose) (HPC) 92 % of control | dose: 50.0 mg/kg/injection, schedule: Q04DX003 (ip), vehicle: Klucel (hydroxypropylcellulose) (HPC) 94 % of control | [7] 95 % of control | dose: 100.0 mg/kg/injection, schedule: Q04DX003 (ip), vehicle: Klucel (hydroxypropylcellulose) (HPC) 92 % of control

CCCCCCCCCCCCNC(=O)c1ccccc1O
inactive: dose: 50.0 mg/kg/injection, schedule: Q01DX009 (ip), vehicle: other 96 % of control | dose: 100.0 mg/kg/injection, schedule: Q01DX009 (ip), vehicle: other 91 % of control | dose: 400.0 mg/kg/injection, schedule: Q01DX009 (ip), vehicle: other 101 % of control
